Test system: adulte ovarektomierte Ratten
Assay: Uterus wet weight after single oral application in adult ovariectomized rats (oral estrogenic effect, dose-response analysis)
Assay type: in vivo
Conditions: suspended in Myrj, 3-100 µg/T (dose refers to steroid part), uterus wet weight on day 4, Abbildungen 1 und 2
Source text: Als Vergleiche dienten Ethinylestradiol (EE) und 14α,15α-Methylen-estra-1,3,5(10)-trien-3,17β-diol (Code: J824) Die Ermittlung der Uterusfeuchtmassen nach einmaliger oraler Substanzapplikation sowie die Dosis-Wirkungsanalysen der Substanzen wurde zur Bemessung einer Estrogenwirkung herangezogen.
Sowohl Uterus als auch Vagina zeigen bei ovarektomierten Ratten eine von der Estrogendosis abhängige Gewichtszunahme. Diese ist auf eine Proliferation der Schleimhäute, erhöhte Proteinsynthese, aber auch auf eine Wassereinlagerung zurückzuführen. Für die der Erfindung zu Grunde liegenden Untersuchungen wurden adulte ovarektomierte Ratten eingesetzt. In einer kontrollierten Studie wurden Ester des 14α,15α-Methylen-estradiols auf estrogene Wirkung bei oraler Applikation gegen Ethinylestradiol(EE) und 14α,15α-Methylen-estradiol (J 824) geprüft. Die angegebenen Dosierungen beziehen sich auf den Steroidkern der Moleküle. Die Testsubstanzen wurden einmalig oral appliziert. Als Parameter einer Estrogenwirkung wurden am 4. Tag des Versuches die Uterusgewichte ermittelt (Feuchtgewichte).
Weibliche Ratten [Stamm: BOR:WISW (SPF/Cpb)], Körpermasse zu Versuchsbeginn 200 - 240 g wurden ovarektomiert und 10 Tage nach diesem Eingriff randomisiert den Versuchsgruppen zugeordnet. Dann erfolgte die einmalige orale Applikation (Tag 1) der Prüfsubstanzen. Am 4. […]

Question: How did the “orale Estrogenwirkung (Uterusfeuchtmassen)” value turn out when `C[C@]12CC[C@@H]3c4ccc(O)cc4CC[C@H]3[C@@]13C[C@H]3C[C@@H]2O` [J824, 14α,15α-Methylen-estra-1,3,5(10)-trien-3,17β-diol] was run?
Answer: The value was “bessere estrogene Wirkung des J824 gegenüber EE”.
